From patent publication US11419869B2, “Dosage forms and regimens for amino acid compounds” (Pliant Therapeutics, Inc., priority 2019, dated 2022)

The molecules below were run against recombinant human integrin αvβ6 (Homo sapiens (Human), UniProt P06756+P18564) (assay: Solid Phase Integrin αvβ6 Binding Assay (Examples B1, B2)). Settings: TGFβ1 LAP ligand, values given in four ranges, read-out: αvβ6 Inhibition IC50 (nM)-range.
Description: (§1) Microplates were coated with recombinant human integrin αvβ6 (2 μg/mL) in PBS (100 μL/well 25° C., overnight). The coating solution was removed, washed with wash buffer (0.05% Tween 20; 0.5 mM MnCl2; in 1×TBS). The plate was blocked with 200 μL/well of Block Buffer (1% BSA; 5% sucrose; 0.5 mM MnCl2; in 1×TBS) at 37° C. for 2 h. Dilutions of testing compounds and recombinant TGFβ1 LAP (0.67 μg/mL) in binding buffer (0.05% BSA; 2.5% sucrose; 0.5 mM MnCl2; in 1×TBS) were added. The plate was incubated for 2 hours at 25° C., washed, and incubated for 1 hour with Biotin-Anti-hLAP. Bound antibody was detected by peroxidase-conjugated streptavidin. The IC50 values for testing compounds were calculated by four-parameter logistic regression.
The compounds tested were compound samples prepared according to procedures described in the Synthetic Examples section, with the stereochemical purity as indicated in the Examples.
as §1, with “A third series of exemplary compounds was selected for testing in the solid phase integrin αvβ6 binding assay. The compounds tested were compound samples prepared according to procedures described in the Synthetic Examples section, with the stereochemical purity as indicated in the Examples. As in Example B1, microplates were coated” for “Microplates were coated”, “calculated by a four-parameter logistic” for “calculated by four-parameter logistic”

Chain of recombinant human integrin αvβ6 (P06756 31-992): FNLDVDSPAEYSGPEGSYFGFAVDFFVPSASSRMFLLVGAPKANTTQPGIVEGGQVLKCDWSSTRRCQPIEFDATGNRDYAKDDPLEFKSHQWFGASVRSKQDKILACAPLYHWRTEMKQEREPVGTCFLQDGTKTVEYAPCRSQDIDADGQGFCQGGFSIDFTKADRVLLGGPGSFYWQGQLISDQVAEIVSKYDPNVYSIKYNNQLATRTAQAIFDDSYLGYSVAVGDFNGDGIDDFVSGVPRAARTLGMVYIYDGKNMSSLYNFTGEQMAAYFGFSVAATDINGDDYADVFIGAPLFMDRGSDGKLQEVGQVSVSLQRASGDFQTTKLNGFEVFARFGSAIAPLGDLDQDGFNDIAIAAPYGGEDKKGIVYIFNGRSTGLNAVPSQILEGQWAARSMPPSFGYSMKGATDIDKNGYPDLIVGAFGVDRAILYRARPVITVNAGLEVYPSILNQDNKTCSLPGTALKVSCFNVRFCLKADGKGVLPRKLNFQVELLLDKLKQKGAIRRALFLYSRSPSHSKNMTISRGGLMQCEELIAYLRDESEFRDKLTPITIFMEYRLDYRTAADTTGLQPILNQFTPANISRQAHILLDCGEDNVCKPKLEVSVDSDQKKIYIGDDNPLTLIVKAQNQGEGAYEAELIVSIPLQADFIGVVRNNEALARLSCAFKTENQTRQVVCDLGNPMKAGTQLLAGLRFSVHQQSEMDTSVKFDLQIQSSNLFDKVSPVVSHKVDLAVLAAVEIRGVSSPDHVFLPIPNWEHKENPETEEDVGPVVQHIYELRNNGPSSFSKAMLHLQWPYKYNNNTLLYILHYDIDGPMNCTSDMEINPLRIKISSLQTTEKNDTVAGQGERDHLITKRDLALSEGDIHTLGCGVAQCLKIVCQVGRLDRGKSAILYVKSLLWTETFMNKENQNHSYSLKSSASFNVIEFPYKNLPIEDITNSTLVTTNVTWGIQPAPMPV
Chain of recombinant human integrin αvβ6 (P18564 22-707): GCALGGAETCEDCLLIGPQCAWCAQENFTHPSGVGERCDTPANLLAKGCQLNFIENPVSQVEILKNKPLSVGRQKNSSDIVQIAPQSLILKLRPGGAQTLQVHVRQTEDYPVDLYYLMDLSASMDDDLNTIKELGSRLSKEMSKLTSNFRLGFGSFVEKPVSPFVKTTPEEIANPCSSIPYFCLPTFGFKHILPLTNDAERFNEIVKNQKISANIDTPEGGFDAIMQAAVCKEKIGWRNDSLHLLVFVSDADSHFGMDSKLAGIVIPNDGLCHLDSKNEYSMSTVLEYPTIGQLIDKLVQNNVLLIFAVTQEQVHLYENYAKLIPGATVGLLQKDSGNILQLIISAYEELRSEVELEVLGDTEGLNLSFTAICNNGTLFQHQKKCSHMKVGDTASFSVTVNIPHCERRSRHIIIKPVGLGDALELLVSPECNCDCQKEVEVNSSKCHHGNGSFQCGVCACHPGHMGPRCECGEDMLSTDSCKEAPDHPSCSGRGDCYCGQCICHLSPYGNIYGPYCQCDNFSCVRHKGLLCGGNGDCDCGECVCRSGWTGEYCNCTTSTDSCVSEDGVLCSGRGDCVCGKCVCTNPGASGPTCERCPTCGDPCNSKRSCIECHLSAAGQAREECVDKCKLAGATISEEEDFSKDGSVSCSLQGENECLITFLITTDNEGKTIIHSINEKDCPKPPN

`COCCN(CCCCc1ccc2c(n1)NCCC2)CC[C@H](Nc1ncnc2cc(F)ccc12)C(=O)O` [Compound 7, (S)-2-((7-fluoroquinazolin-4-yl)amino)-4-((2-methoxyethyl) (4-(5,6,7,8-tetrahydro-1,8-naphthyridin-2-yl)butyl)amino) butanoic acid] and `COCCN(CCCCc1ccc2c(n1)NCCC2)CC[C@H](Nc1ncnc2ccc(F)cc12)C(=O)O` [Compound 19, (S)-2-((6-fluoroquinazolin-4-yl)amino)-4-((2-methoxyethyl) (4-(5,6,7,8-tetrahydro-1,8-naphthyridin-2-yl)butyl)amino) butanoic acid] cannot be ordered by IC50: under 50 nM for the first, under 50 nM for the second.

First: O=C(O)[C@H](CCN(CCCCc1ccc2c(n1)NCCC2)C1CC(F)(F)C1)Nc1ncnc2ccccc12 [Compound 9, (S)-4-((3,3-difluorocyclobutyl) (4-(5,6,7,8-tetrahydro-1,8-naphthyridin-2-yl)butyl)amino)-2-(quinazolin-4-ylamino) butanoic acid]
Second: COCCN(CCCCc1ccc2c(n1)NCCC2)CC[C@H](Nc1ncnc2cccc(F)c12)C(=O)O [Compound 18, (S)-2-((5-fluoroquinazolin-4-yl)amino)-4-((2-methoxyethyl) (4-(5,6,7,8-tetrahydro-1,8-naphthyridin-2-yl)butyl)amino) butanoic acid]
The IC50 of the first is higher: over 1000 nM for the first, under 50 nM for the second.

`COCCN(CCCCc1ccc2c(n1)NCCC2)CC[C@H](Nc1nc(C)nc2ccccc12)C(=O)O` [Compound 10, (S)-4-((2-methoxyethyl) (4-(5,6,7,8-tetrahydro-1,8-naphthyridin-2-yl)butyl)amino)-2-((2-methylquinazolin-4-yl)amino) butanoic acid] and `COCCN(CCCCc1ccc2c(n1)NCCC2)CC[C@H](Nc1nc(C)nc2cc(F)ccc12)C(=O)O` [Compound 12, (S)-2-((7-fluoro-2-methylquinazolin-4-yl)amino)-4-((2-methoxyethyl) (4-(5,6,7,8-tetrahydro-1,8-naphthyridin-2-yl)butyl)amino) butanoic acid] cannot be ordered by IC50: under 50 nM for the first, under 50 nM for the second.

`COCCN(CCCCc1ccc2c(n1)NCCC2)CC[C@H](Nc1ncnc2ncccc12)C(=O)O` [Compound 11, (S)-4-((2-methoxyethyl) (4-(5,6,7,8-tetrahydro-1,8-naphthyridin-2-yl)butyl)amino)-2-(pyrido[2,3-d]pyrimidin-4-ylamino) butanoic acid] and `COCCN(CCCCc1ccc2c(n1)NCCC2)CC[C@H](Nc1ncnc2cccnc12)C(=O)O` [Compound 16, (S)-4-((2-methoxyethyl) (4-(5,6,7,8-tetrahydro-1,8-naphthyridin-2-yl)butyl)amino)-2-(pyrido[3,2-d]pyrimidin-4-ylamino) butanoic acid] cannot be ordered by IC50: under 50 nM for the first, under 50 nM for the second.

`COCCN(CCCCc1ccc2c(n1)NCCC2)CC[C@H](Nc1nc(C(F)(F)F)nc2ccccc12)C(=O)O` [Compound 14, (S)-4-((2-methoxyethyl) (4-(5,6,7,8-tetrahydro-1,8-naphthyridin-2-yl)butyl)amino)-2-((2-(trifluoromethyl)quinazolin-4-yl)amino) butanoic acid] and `COCCN(CCCCc1ccc2c(n1)NCCC2)CC[C@H](Nc1ncnc2c(C(F)(F)F)cccc12)C(=O)O` [Compound 15, (S)-4-((2-methoxyethyl) (4-(5,6,7,8-tetrahydro-1,8-naphthyridin-2-yl)butyl)amino)-2-((8-(trifluoromethyl)quinazolin-4-yl)amino) butanoic acid] cannot be ordered by IC50: under 50 nM for the first, under 50 nM for the second.

`COCCN(CCCCc1ccc2c(n1)NCCC2)CC[C@H](Nc1ncnc2cnccc12)C(=O)O` [Compound 17, (S)-4-((2-methoxyethyl) (4-(5,6,7,8-tetrahydro-1,8-naphthyridin-2-yl)butyl)amino)-2-(pyrido[3,4-d]pyrimidin-4-ylamino) butanoic acid] and `COCCN(CCCCc1ccc2c(n1)NCCC2)CC[C@H](Nc1ncnc2c(F)cccc12)C(=O)O` [Compound 20, (S)-2-((8-fluoroquinazolin-4-yl)amino)-4-((2-methoxyethyl) (4-(5,6,7,8-tetrahydro-1,8-naphthyridin-2-yl)butyl)amino) butanoic acid] cannot be ordered by IC50: under 50 nM for the first, under 50 nM for the second.
